Drawing on patent US20190292155A1, “THERAPEUTIC INHIBITORY COMPOUNDS” (LifeSci Pharmaceuticals, Inc., priority 2016, published 2019), this text covers IC50 and EC50 for twelve compounds.

The target of assay [1] is T1, human complement factor D (Homo sapiens, UniProt P00746).
T1 construct: purchased R&D Systems 1824-SE
Nature of the assay: In vitro enzyme inhibition of human complement factor D (Z-Lys-SBzl/DTNB, A405). The assay is classed as biochemical. In a few lines: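 Buffer 50 mM Tris/HCl pH 7.5, 1 M NaCl, 0.5% final DMSO; compounds pre-incubated with enzyme 5 min at room temperature, then Z-Lys-SBzl with DTNB added (each diluted to 200 μM before addition).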

Assay [2] deals with alternative pathway (AP) hemolytic activity. Nature of the assay: AP hemolysis inhibition assay. The assay is classed as cell-based. Particulars: Normal Human Serum, chicken or rabbit erythrocytes. On the procedure: The ability of the compounds disclosed herein to inhibit alternative pathway (AP) hemolytic activity was determined. […] In 100 μL reaction system, 1300 to […] final concentration of Normal Human Serum (CompTech) was incubated with compound for 15 min at 37° C. Then 2×10^6 cells/well of chicken or rabbit erythrocytes in assay buffer were added and incubated for an additional 60 min at 37° C. Positive control (100% lysis) consists of serum and RBC, and negative control (0% lysis) consists of assay buffer and RBC only. Samples were centrifuged at 2000 g for 5 min, and supernatants collected. […] Percentage lysis in each sample is calculated relative to positive control (100% lysis).

The mark [3] stands for this setting: biochemical assay, substrate Z-Lys-SBzl, read-out: CFD IC50.

Each structure is given as a SMILES string. Like-named read-outs stand apart in the source and are kept apart here.

T1 sequence (P00746 26-253): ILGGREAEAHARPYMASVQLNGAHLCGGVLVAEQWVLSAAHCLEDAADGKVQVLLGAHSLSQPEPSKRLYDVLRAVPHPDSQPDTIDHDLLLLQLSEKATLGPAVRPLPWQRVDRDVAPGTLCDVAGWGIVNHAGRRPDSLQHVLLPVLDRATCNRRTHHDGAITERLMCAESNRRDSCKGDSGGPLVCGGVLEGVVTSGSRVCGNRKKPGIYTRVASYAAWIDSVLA

On to `NC(=O)n1nc(CC(=O)N(CC(=O)NCc2cccc(Cl)c2F)C2CC2)c2ccccc21` [Example 8, 3-(2-((2-((3-chloro-2-fluorobenzyl)amino)-2-oxoethyl)(cyclopropyl)amino)-2-oxoethyl)-1H-indazole-1-carboxamide], for which the IC50 in assay [1] (setting [3]) was below 100 nM. In assay [2], this compound displayed an EC50 of 100 to 1000 nM.

Take `CC(C)N(CC(=O)Nc1cccc(Cl)n1)C(=O)Cn1nc(C(N)=O)c2ccccc21` [Example 12, 1-(2-((2-((6-chloropyridin-2-yl)amino)-2-oxoethyl)(isopropyl)amino)-2-oxoethyl)-1H-indazole-3-carboxamide]: the half-maximal inhibitory concentration (IC50) in assay [1] was in the range of 100 to 1000 nM. The compound also yielded a 50% effective concentration (EC50) in assay [2] of 100 to 1000 nM.

With `CC(C)N(CC(=O)NCc1cccc(Cl)c1F)C(=O)Nc1cn(C(N)=O)c2ccccc12` [Example 50, 3-(3-(2-((3-chloro-2-fluorobenzyl)amino)-2-oxoethyl)-3-isopropylureido)-1H-indole-1-carboxamide], the IC50 in assay [1] (setting [3]) fell in the range of 100 to 1000 nM. In assay [2], this compound had a half-maximal effective concentration (EC50) of 1000 to 10000 nM.

For the compound `CC(=O)c1nn(CC(=O)N(CC(=O)NCc2cccc(Cl)c2F)C2CC2)c2ccccc12` [Example 47, 2-(3-acetyl-1H-indazol-1-yl)-N-(2-((3-chloro-2-fluorobenzyl)amino)-2-oxoethyl)-N-cyclopropylacetamide], in assay [1] (setting [3]), the IC50 is below 100 nM. The concentration giving a half-maximal response (EC50) in assay [2] fell in the range of 100 to 1000 nM.

On to `NC(=O)n1nc(CC(=O)N(CC(=O)Nc2cccc(Cl)n2)C2CCC2)c2ccccc21` [Example 20, 3-(2-((2-((6-chloropyridin-2-yl)amino)-2-oxoethyl)(cyclobutyl)amino)-2-oxoethyl)-1H-indazole-1-carboxamide], for which the 50% inhibitory concentration (IC50) in assay [1] (setting [3]) was 100 to 1000 nM. This compound also had a 50% effective concentration (EC50) in assay [2] of 100 to 1000 nM.

`NC(=O)c1nc(NC(=O)N(CC(=O)NCc2cccc(Cl)c2F)C2CC2)c2ccccn12` [Example 53, 1-(3-(2-((3-chloro-2-fluorobenzyl)amino)-2-oxoethyl)-3-cyclopropylureido)imidazo[1,5-a]pyridine-3-carboxamide]: the IC50 in assay [1] (setting [3]) fell in the range of 100 to 1000 nM. Also, the EC50 in assay [2] lay within 100 to 1000 nM.

On to `NC(=O)c1nn(CC(=O)N(CC(=O)NCc2cccc(Cl)c2F)C2CC2)c2cnccc12` [Example 40, 1-(2-((2-((3-chloro-2-fluorobenzyl)amino)-2-oxoethyl)(cyclopropyl)amino)-2-oxoethyl)-1H-pyrazolo[3,4-c]pyridine-3-carboxamide], for which, in assay [1] (setting [3]), the concentration for half-maximal inhibition (IC50) is below 100 nM. This compound also gave an EC50 in assay [2] of 100 to 1000 nM.

`NC(=O)c1nn(CC(=O)N(CC(=O)NCc2cccc(Cl)c2F)C2CC2)c2ccc(Cl)cc12` [Example 80, 5-chloro-1-(2-((2-((3-chloro-2-fluorobenzyl)amino)-2-oxoethyl)(cyclopropyl)amino)-2-oxoethyl)-1H-indazole-3-carboxamide] registered an IC50 in assay [1] of 100 to 1000 nM.

Consider `CC1CC1N(CC(=O)NCc1cccc(Cl)c1F)C(=O)Cn1nc(C(N)=O)c2ccccc21` (centres unmarked) [Example 63, 1-(2-((2-((3-chloro-2-fluorobenzyl)amino)-2-oxoethyl)(2-methylcyclopropyl)amino)-2-oxoethyl)-1H-indazole-3-carboxamide], for which the IC50 in assay [1] (setting [3]) lay within 100 to 1000 nM.

For the compound `NC(=O)c1nn(CC(=O)N(CC(=O)NCc2cccc(CO)c2F)C2CC2)c2ccccc12` [Example 126, 1-(2-(cyclopropyl(2-((2-fluoro-3-(hydroxymethyl)benzyl)amino)-2-oxoethyl)amino)-2-oxoethyl)-1H-indazole-3-carboxamide], the half-maximal inhibitory concentration (IC50) in assay [1] (setting [3]) is above 10000 nM.

Turning to `NC(=O)c1cc(C(N)=O)n(CC(=O)N(CC(=O)NCc2cccc(Cl)c2F)C2CC2)n1` [Example 45, 1-(2-((2-((3-chloro-2-fluorobenzyl)amino)-2-oxoethyl)(cyclopropyl)amino)-2-oxoethyl)-1H-pyrazole-3,5-dicarboxamide], in assay [1] (setting [3]), the IC50 lay in the range of 1000 to 10000 nM.

In the case of `NC(=O)c1nn(CC(=O)N(CC(=O)Nc2cccc(Cl)n2)C2CC2)c2ccccc12` [Example 16, 1-(2-((2-((6-chloropyridin-2-yl)amino)-2-oxoethyl)(cyclopropyl)amino)-2-oxoethyl)-1H-indazole-3-carboxamide], the concentration for half-maximal inhibition (IC50) in assay [1] fell in the range of 100 to 1000 nM. The same compound registered an EC50 in assay [2] of 100 to 1000 nM.

Broadly, the IC50 is the concentration that inhibits the measured activity by half. One may read the EC50 as the concentration that produces a half-maximal response. A higher EC50 goes with lower potency in that assay.
